# Assay results: patent publication US20220009894A1, “1,2,3,4-TETRAHYDROQUINOXALINE DERIVATIVE, PREPARATION METHOD THEREFOR AND APPLICATION THEREOF” (Abbisko Therapeutics Co., Ltd., priority 2019, published 2022)
# Assays:
# [1] = target: T1, RORγt-LBD (Homo sapiens, UniProt P51449); assay: Time-resolved fluorescence resonance energy-transfer assay (TR-FRET), co-activator peptide recruitment; type: biochemical; parameters: TR-FRET Biochemical Amax: unit not given here; details: for EC50: His-RORγt-LBD 30 nM, SRC peptide 500 nM, agonistic activity, averages of one or more measurements, read-out: TR-FRET Biochemical EC50/; for TR-FRET Biochemical Amax: upper activation limit, His-RORγt-LBD, SRC peptide
# T1 sequence (P51449 269-508 limits assumed): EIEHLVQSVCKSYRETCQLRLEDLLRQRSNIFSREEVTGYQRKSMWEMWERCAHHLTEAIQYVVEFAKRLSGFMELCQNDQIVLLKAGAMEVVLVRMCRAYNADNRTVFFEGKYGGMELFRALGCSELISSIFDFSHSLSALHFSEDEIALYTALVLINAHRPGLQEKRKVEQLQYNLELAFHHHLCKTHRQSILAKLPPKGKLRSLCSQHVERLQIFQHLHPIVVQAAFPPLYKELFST
# In short: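 Eu-anti-His-labelled His-RORγt-LBD (30 nM final) recruits biotin-SRC co-activator peptide (500 nM final), detected via APC-streptavidin (5 nM) and Eu-anti-His (0.25 nM). Buffer was Tris/KCl/EDTA at pH 7.0 with 0.01% Triton X-100 and 1 mM DTT. Compounds were tested at 7 points in 5-fold dilutions. Plates were incubated overnight at 4 °C then 1 h at RT, and agonism was read as the 665/615 nm ratio.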
# [2] = target: T2, RORγt (Homo sapiens, UniProt P51449); assay: RORγt cellular reporter gene detection assay; type: cell-based; details: 24 hrs; for EC50: HEK 293 cells co-transfected with pFN26A-RORγt-LBD and pG14.35, in presence of antagonist Ursolic acid, top concentration 50 μM; for Cellular Reporter Assay Amax: upper activation limit, HEK 293 cells, in presence of antagonist Ursolic acid;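 for Cellular Reporter Assay Amax: Ursolic Acid added as 5 µL of 20 µM medium per well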
# T2 construct: The plasmid of pFN26A-RORγt-LBD and pG14.35 (Promega, Cat. No. E1370) were co-transfected into HEK 293 cells; expressed in transfected cells; host or cells: HEK 293 cells (Cat. No. GNHu18)
# T2 sequence (P51449 269-508 limits assumed): T1 sequence (P51449 269-508 limits assumed)
# In short: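 HEK293 cells co-transfected with RORγt-LBD and luciferase reporter plasmids, treated with Ursolic acid antagonist plus compound in 4-fold dilutions from 50 μM for 24 h at 37° C. Firefly and Renilla luminescence read; EC50 and Amax from four-parameter fit.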
SMILES,EC50 [1] [nM],TR-FRET Biochemical Amax [1],EC50 [2] [nM],Cellular Reporter Assay Amax [2]
"NC(=O)C1(N2CCN3c4ccc(-c5cc(F)cc(OC(F)F)c5)cc4N(S(=O)(=O)c4cccc(C(F)(F)F)c4)C[C@@H]3C2)CCC1 [Example 80, (S)-1-(8-(3-(difluoromethoxy)-5-fluorophenyl)-6-((3-(trifluoro-methyl)phenyl)sulfonyl)-1,2,4,4a,5,6-hexahydro-3H-pyrazino[1,2-a]quinoxalin-3-yl)cyclobutane-1-carboxamide]",39.3,1.04,209,3.4
"CC(=O)N1CCN2c3ccc(/C=C(\C)c4c(F)cccc4Cl)cc3N(S(=O)(=O)c3cccc(C(F)(F)F)c3)C[C@@H]2C1 [Example 15, (S,E)-1-(8-(2-(2-chloro-6-fluorophenyl)prop-1-en-1-yl)-6-((3-(trifluoromethyl)phenyl)sulfonyl)-1,2,4,4a,5,6-hexahydro-3H-pyrazino [1,2-a]quinoxalin-3-yl)ethan-1-one]",25,0.83,134,3.2
"N#CC(CO)(CO)N1CCN2c3ccc(-c4cc(F)cc(OC(F)F)c4)cc3N(S(=O)(=O)c3cccc(C(F)(F)F)c3)C[C@@H]2C1 [Example 74, (S)-2-(8-(3-(difluoromethoxy)-5-fluorophenyl)-6-((3-(trifluoromethyl)phenyl)sulfonyl)-1,2,4,4a,5,6-hexahydro-3H-pyrazino[1,2-a]quinoxalin-3-yl)-3-hydroxy-2-(hydroxymethyl)propanenitrile]",45.1,1.20,1040,6.2
"C/C(=C\c1ccc2c(c1)N(S(=O)(=O)c1cccc(C(F)(F)F)c1)C[C@@H]1CN(C3COC3)CCN21)c1c(F)cccc1Cl [Example 33, (S,E)-8-(2-(2-chloro-6-fluoro-phenyl)prop-1-en-1-yl)-3-(oxetan-3-yl)-6-((3-(trifluoro-methyl)pheny4)sulfonyl)-2,3,4,4a,5,6-hexahydro-1H-pyrazino[1,2-a]quinoxaline]",45.7,0.93,2040,5.2
"O=C(O)CN1CCN2c3ccc(-c4cc(F)cc(OC(F)F)c4)cc3N(S(=O)(=O)c3cccc(C(F)(F)F)c3)C[C@@H]2C1 [Example 9, (S)-2-(8-(3-(difluoromethoxy)-5-fluorophenyl)-6-((3-(trifluoromethyl)phenyl)sulfonyl)-1,2,4,4a,5,6-hexahydro-3H-pyrazino[1,2-a]quinoxalin-3-yl)acetic acid]",11.6,0.63,290,3.5
"O=C(O)CCOC1CCN2c3ccc(-c4cc(F)cc(OC(F)F)c4)cc3N(S(=O)(=O)c3cccc(C(F)(F)F)c3)C[C@@H]2C1 (stereo partly drawn) [Example 109, 3-(((6aS)-3-(3-(difluoromethoxy)-5-fluorophenyl)-5-((3-(trifluoromethyl)phenyl)sulfonyl)-6,6a,7,8,9,10-hexahydro-5H-pyrido[1,2-a]quinoxalin-8-yl)oxy)propanoic acid]",17.5,0.65,468,5.9
"O=S(=O)(c1cccc(C(F)(F)F)c1)N1CC2C[S+]([O-])CCN2c2ccc(-c3cc(F)cc(OC(F)F)c3)cc21 (centres unmarked) [Example 101, 8-(3-(difluoromethoxy)-5-fluorophenyl)-6-((3-(trifluoromethyl)phenyl)sulfonyl)-1,2,4,4a,5,6-hexahydro-[1,4]thiazino[4,3-a]quinoxaline 3-oxide]",40.9,0.45,913,3.9
"CCOC(=O)CN1CCN2c3ccc(/C=C(\C)c4c(F)cccc4Cl)cc3N(S(=O)(=O)c3cccc(C(F)(F)F)c3)C[C@@H]2C1 [Example 43, ethyl (S,E)-2-(8-(2-(2-chloro-6-fluorophenyl)prop-1-en-1-yl)-6-((3-(trifluoromethyl)phenyl)sulfonyl)-1,2,4,4a,5,6-hexahydro-3H-pyrazino[1,2-a]quinoxalin-3-yl)acetate]",17.2,0.87,162,3.0
"N#CC1(N2CCN3c4ccc(-c5cc(F)cc(OC(F)F)c5)cc4N(S(=O)(=O)c4cccc(C(F)(F)F)c4)C[C@@H]3C2)CCC1 [Example 77, (S)-1-(8-(3-(difluoromethoxy)-5-fluorophenyl)-6-((3-(trifluoro-methyl)phenyl)sulfonyl)-1,2,4,4a,5,6-hexahydro-3H-pyra-zino[1,2-a]quinoxalin-3-yl)cyclo-butane-1-carbonitrile]",18.3,0.95,1470,3.7
"O=S(=O)(c1cccc(C(F)(F)F)c1)N1C[C@@H]2CN(C(CO)CO)CCN2c2ccc(-c3cc(F)cc(OC(F)F)c3)cc21 [Example 70, (S)-2-(8-(3-(difluoromethoxy)-5-fluorophenyl)-6-((3-(trifluorometh-yl)phenyl)sulfonyl)-1,2,4,4a,5,6-hexahydro-3H-pyrazino[1,2-a]quinoxalin-3-yl)propane-1,3-diol]",64.2,0.99,531,4.2

# The remaining molecules from weak to strong by EC50 [1], led by results:
EC50 [1] [nM],TR-FRET Biochemical Amax [1],EC50 [2] [nM],Cellular Reporter Assay Amax [2],SMILES
91.7,0.84,3450,4.3,"O=S(=O)(c1cccc(C(F)(F)F)c1)N1CC2CSCCN2c2ccc(-c3cc(F)cc(OC(F)F)c3)cc21 (centres unmarked) [Example 100, 8-(3-(difluoromethoxy)-5-fluorophenyl)-6-((3-(trifluoromethyl)phenyl)sulfonyl)-1,2,4,4a,5,6-hexahydro-[1,4]thiazino[4,3-a]quinoxaline]"
46.3,0.81,344,2.3,"NC(=O)OC1CCN2c3ccc(-c4cc(F)cc(OC(F)F)c4)cc3N(S(=O)(=O)c3cccc(C(F)(F)F)c3)C[C@@H]2C1 (stereo partly drawn) [Example 104, (6aS)-3-(3-(difluoromethoxy)-5-fluorophenyl)-5-((3-(trifluoromethyl)phenyl)sulfonyl)-6,6a,7,8,9,10-hexahydro-5H-pyrido[1,2-a]quinoxalin-8-yl carbamate]"
42.3,0.65,238,2.6,"CC(CO)(CO)N1CCN2c3ccc(-c4cc(F)cc(OC(F)F)c4)cc3N(S(=O)(=O)c3cccc(C(F)(F)F)c3)C[C@@H]2C1 [Example 72, (S)-2-(8-(3-(difluoromethoxy)-5-fluorophenyl)-6-((3-(trifluoro-methyl)phenyl)sulfonyl)-1,2,4,4a,5,6-hexahydro-3H-pyra-zino[1,2-a]quinoxalin-3-yl)-2-methylpropane-1,3-diol]"
37.5,1.21,366,3.7,"C/C(=C\c1ccc2c(c1)N(S(=O)(=O)c1cccc(C(F)(F)F)c1)C[C@@H]1CN(C[C@@H](O)CO)CCN21)c1c(F)cccc1Cl [Example 37, (R)-3-((S)-8-((E)-2-(2-chloro-6-fluorophenyl)prop-1-en-1-yl)-6-((3-(trifluoromethyl)phe-nyl)sulfonyl)-1,2,4,4a,5,6-hexa-hydro-3H-pyrazino[1,2-a]qui-noxalin-3-yl)propane-1,2-diol]"
32,1.01,418,6.3,"O=C(O)CN1CCN2c3ccc(/C=C/c4c(Cl)cccc4C(F)(F)F)cc3N(S(=O)(=O)c3cccc(C(F)(F)F)c3)C[C@@H]2C1 [Example 20, (S,E)-2-(8-(2-chloro-6-(trifluoro-methyl)styryl)-6-((3-(tri-fluoromethyl)phenyl)sulfonyl)-1,2,4,4a,5,6-hexahydro-3H-pyrazino[1,2-a]quinoxalin-3-yl)acetic acid]"
29.6,0.64,404,2.3,"CC(C(=O)O)N1CCN2c3ccc(-c4cc(F)cc(OC(F)F)c4)cc3N(S(=O)(=O)c3cccc(C(F)(F)F)c3)C[C@@H]2C1 (stereo partly drawn) [Example 26, 2-((S)-8-(3-(difluorome-thoxy)-5-fluorophenyl)-6-((3-(trifluoromethyl)phe-nyl)sulfonyl)-1,2,4,4a,5,6-hexahydro-3H-pyrazino[1,2-a]quinoxalin-3-yl) propanoic acid]"
24,1.15,467,4.2,"O=S(=O)(c1cccc(C(F)(F)F)c1)N1C[C@@H]2CN(C[C@@H](O)CO)CCN2c2ccc(/C=C/c3c(Cl)cccc3C(F)(F)F)cc21 [Example 35, (R)-3-((S)-8-((E)-2-chloro-6-(trifluoromethyl)styryl)-6-((3-(trifluoromethyl)phenyl)sulfonyl)-1,2,4,4a,5,6-hexahydro-3H-pyrazino[1,2-a]quinoxalin-3-yl)propane-1,2-diol]"
